Assay results published in patent US20180110796A1, “COMPOSITIONS AND METHODS FOR THE TREATMENT OF HBV INFECTION” (Spring Bank Pharmaceuticals, Inc., priority 2015, published 2018).

Experiments:
[1] = test system: woodchuck hepatitis virus (WHV); assay: Formula (IIa) in combination with entecavir, sequential oral treatment of chronic WHV carrier woodchucks (Example 3); format: in vivo, woodchuck (Marmota monax)
Text: Ten (10) woodchucks chronically infected with WHV were used. Woodchucks were born in captivity and were inoculated at 3 days of age with cWHV7P2a inoculum, then reared until 11 months of age. Prior to the study, woodchucks were confirmed as established chronic carriers of WHV based on established criteria including the presence of WHV surface antigen (WHsAg), antibody against […], and WHV DNA. Woodchucks used in the study were of both gender and approximately between 12 and 14 months of age at the start of the study.
Two (2) groups of five (5) chronic WHV carrier woodchucks each were used in the study:
Group 1 was orally treated for 4 weeks with ETV at a daily dose of 0.5 mg/kg starting at T0, followed by add-on treatment with Formula (IIa) for 12 weeks at a daily dose of 30 mg/kg. Woodchucks were then followed for a total of 24 weeks.
Group 2 was orally treated for 12 weeks with Formula (IIa) at a daily dose of 30 mg/kg starting at T0, followed by add-on treatment with ETV for 4 weeks at a daily dose of 0.5 mg/kg. Woodchucks were then also followed for a total of 24 weeks.
Formula (IIa) was supplied as a pre-weighed powder in individual containers. An amount of powder sufficient to treat all 10 pre-weighed woodchucks per day with Formula (IIa) was mixed directly with woodchuck diet powder (Dyets Inc., Bethlehem, Pa.) and then suspended with HPLC water. The drug was orally administered with a dose syringe at T0 (Group 2) or after 4 weeks of treatment with ETV (Group 1), and thereafter every day for 12 weeks (84 days). Drug dosing was then followed by an extra 2 ml of woodchuck liquid diet to ensure complete consumption of Formula (IIa).
ETV was provided as powder. An amount of powder sufficient to treat all 10 woodchucks per day was suspended in isotonic saline at a concentration of 0.5 mg/ml. A volume (ml) of drug solution equivalent to the body weight (kg) of an individual woodchuck was then mixed with approximately 3-5 ml of woodchuck liquid diet and administered orally with a dose syringe at T0 (Group 1) or after 12 weeks of treatment with Formula (IIa) (Group 2), and thereafter every day for 4 weeks (28 days). ETV dosing was followed by an extra 2 ml of woodchuck liquid diet to ensure complete consumption of drug.
Prior to administration of Formula (IIa) or ETV at T0, then weekly until the end of the study at week 24, whole blood samples were drawn from each woodchuck under ketamine/xylazine anesthesia for determinations of serum WHV DNA, WHsAg, and anti-WHs (see Summary Table below). […] Blood samples were kept at room temperature following collection and serum harvested upon observation of clot retraction. Harvested serum was transferred to microcentrifuge tubes and stored frozen at −70° C. until use.
The induction of an innate immune response in peripheral blood and liver of woodchucks by combination treatment with Formula (IIa) and ETV were determined via real time PCR-based assays. Whole blood samples were obtained prior to the start of treatment with Formula (IIa) at T0, and then at weeks 4, 10, 16, 20, and 24 (Group 1) or at weeks 6, 12, 16, 20, and 24 (Group 2) (see Summary Table below). Whole blood was drawn into PAXgene blood tubes at the indicated time points and stored at −70° C. until use. Total RNA was isolated from whole blood and treated with DNase using the PAXgene Blood miRNA Kit (Quiagen). This was followed by reverse transcription of mRNA into cDNA and amplification of host immune response genes by real time PCR. Woodchuck cytokine and interferon-stimulated genes included IFN-α, IFN-β, interleukin 6 (IL-6), 2′-5′-oligoadenylate synthetase 1 (OAS-1), interferon-induced 17 kDa protein (ISG15), and interferon gamma-induced protein 10 (IP-10or CXCL10). Woodchuck 18S rRNA expression was used to normalize target gene expression. […]

[2] = test system: woodchuck hepatitis virus (WHV); assay: Antiviral activity of Formula (Ia), intraperitoneal, in chronic WHV carrier woodchucks (Example 1); format: in vivo, woodchuck (Marmota monax)
Description: Three groups of five chronic WHV carrier woodchucks were used in this in this study. Formula (Ia) was administered intraperitoneally to two groups for a total of 4 weeks. Groups for drug treatment received Formula (Ia) at either 10 mg/kg/day or 30 mg/kg/day. The third group received physiological saline intraperitoneally and served as placebo-treated controls.
Blood samples for WHV serology, serum […], and hematological and biochemical profiles were obtained prior to the start of treatment and taken thereafter according to the study design. The body weight of each subject was recorded when the woodchucks were anesthetized and bled. The recorded body weights of the drug-treated woodchucks were compared to the placebo-treated control woodchucks to assess possible drug toxicity. WHsAg and anti-WHs and anti-WHc antibodies were determined qualitatively using established ELISA protocols. Dilutions of serum were used to ensure the detection of these markers […] conditions.
WHV DNA in serum was initially measured by dot blot hybridization and quantified by comparing signals of test specimens and standards of known WHV DNA concentration using a homologous probe. […] Quantitative WHV nucleic acid analyses were also performed using a real-time PCR assay with samples containing serum WHV DNA below the limit of detection by dot blot analysis. […]

[3] = test system: wild type HBV or resistant variants of HBV (polymerase M204V, M204I, L180M, L180M/M204V, N236T); assay: Antiviral assays in cells chronically infected with wild type HBV or resistant variants (Example 4); format: cell-based; conditions: added to the cells daily for nine consecutive days
Description: Antiviral assays were carried out in cells chronically infected with resistant variants of HBV. In order to gauge the efficacy of Formula (IIa) and the antiviral nucleoside analogs lamivudine (3TC) and adefovir dipivoxil (ADV) against the tested strains, the in vitro activity (EC50, μM) was determined using six different cell samples chronically infected with HBV. Each cell sample was infected with either wild type HBV or a resistant variant of HBV, wherein the resistant variants comprise mutations in the HBV polymerase (P) at the following amino acid positions: M204V, M204I, L180M, L180M/M204V, and N236T. In each assay, Formula (IIa), 3TC, or ADV was added to the cells daily for nine consecutive days.

## C=C1[C@H](CO)[C@@H](O)C[C@@H]1n1cnc2c(=O)[nH]c(N)nc21 [ETV, entecavir, reference compound]
[1]; ETV 0.5 mg/kg daily oral for 4 weeks, expectation from previous studies
  expected suppression of serum viremia: 3-4 log10
[1]; ETV 0.5 mg/kg daily oral, Group 1
  reductions in serum WHV DNA from pretreatment level during the 4 weeks of ETV: marked reductions
[1]; ETV 0.5 mg/kg, most woodchucks of Group 1
  reductions in serum WHsAg from pretreatment level during the 4 weeks of ETV administration: marked reductions

## COC1[C@@H](OP(=O)(S)OC[C@H]2O[C@@H](n3cnc4c(N)ncnc43)C[C@H]2O)[C@@H](CO)O[C@H]1n1ccc(=O)[nH]c1=O (stereo partly drawn) [Formula (Ia)]
[2]; 30 mg/kg, end of treatment at week 4
  staining intensity of cytoplasmic WHcAg in liver tissues compared to placebo controls: significantly decreased
[2]; 10 and 30 mg/kg/day, 4 weeks
  consistent reductions in serum WHsAg and in hepatic expression of WHcAg and WHsAg: not observed on a dose-response basis

## CC(C)(C)C(=O)OCOP(=O)(COCCn1cnc2c(N)ncnc21)OCOC(=O)C(C)(C)C [ADV, adefovir dipivoxil, reference compound]
[3]
  efficacy against cells infected with wild type and resistant HBV strains (in vitro activity, FIG. 31): efficacious against cells infected with all the HBV strains tested
